The results in this text go back to ChEMBL document CHEMBL4390708, “Design, synthesis, in-silico studies and biological screening of quinazolinone analogues as potential antibacterial agents against MRSA” (2019).

SMILES strings stand for the structures. In brackets after ≈: the same amount, converted by molar mass.

What all share (format): functional
Test [1] relates to Staphylococcus aureus. Kind of test: Antibacterial activity against Staphylococcus aureus assessed as reduction in bacterial cell viability incubated for 20 to 24 hrs by REMA method.
A further test concerns Escherichia coli. Kind of test: Antibacterial activity against Escherichia coli assessed as reduction in bacterial cell viability incubated for 20 to 24 hrs by REMA method.
Test [2] relates to Staphylococcus aureus. The experiment in a line: Antibacterial activity against methicillin-resistant Staphylococcus aureus assessed as reduction in bacterial cell viability incubated for 20 to 24 hrs by REMA method.

For orientation: MIC means the lowest concentration that inhibits growth of the organism. As for `Cc1ccccc1C(=O)Nc1cccc(-n2c(/C=C/c3ccc(C#N)cc3)nc3ccccc3c2=O)c1`, the MIC in the test with Staphylococcus aureus [1], in the test on Escherichia coli and with Staphylococcus aureus [2] was 62.5 µg/mL (≈ 130 µM) each time.

With `Cc1ccccc1C(=O)Nc1cccc(-n2c(/C=C/c3ccc(F)cc3)nc3ccccc3c2=O)c1`, the results for the minimum inhibitory concentration (MIC) in the test on Staphylococcus aureus [1], with Escherichia coli and with Staphylococcus aureus [2] were 125 µg/mL (≈ 263 µM), 62.5 µg/mL (≈ 131 µM) and 62.5 µg/mL (≈ 131 µM), respectively.

`O=C(Nc1cccc(-n2c(/C=C/c3ccc(F)cc3)nc3ccccc3c2=O)c1)c1cccs1`: the MIC was determined as 31.2 µg/mL (≈ 66.8 µM) in the test with Staphylococcus aureus [1], 62.5 µg/mL (≈ 134 µM) with Escherichia coli and 31.2 µg/mL (≈ 66.8 µM) in the test on Staphylococcus aureus [2].

Consider `NC[C@H]1O[C@H](O[C@H]2[C@H](O)[C@@H](O[C@H]3O[C@H](CO)[C@@H](O)[C@H](N)[C@H]3O)[C@H](N)C[C@@H]2N)[C@H](O)[C@@H](O)[C@@H]1O` [KANAMYCIN], for which the MIC with Staphylococcus aureus [1] and in the test on Escherichia coli was 7.8 µg/mL (≈ 16.1 µM) in each case.

As to `N#Cc1ccc(/C=C/c2nc3ccccc3c(=O)n2-c2cccc(NC(=O)c3ccccc3)c2)cc1`, the MIC in the test with Staphylococcus aureus [1], in the test on Escherichia coli and in the test on Staphylococcus aureus [2] was 62.5 µg/mL (≈ 133 µM) each time.

Take `O=C(Nc1cccc(-n2c(/C=C/c3ccc(F)cc3)nc3ccccc3c2=O)c1)c1ccccc1`: the MIC with Staphylococcus aureus [1] came out at 125 µg/mL (≈ 271 µM); in the test with Escherichia coli, 62.5 µg/mL (≈ 135 µM); with Staphylococcus aureus [2], 62.5 µg/mL (≈ 135 µM).

On to `N#Cc1ccc(/C=C/c2nc3ccccc3c(=O)n2-c2cccc(NC(=O)c3cccs3)c2)cc1`, for which the MIC with Staphylococcus aureus [1], with Escherichia coli and in the test on Staphylococcus aureus [2] was 62.5 µg/mL (≈ 132 µM) each time.

As to `COc1ccc(CC(=O)Nc2cccc(-n3c(/C=C/c4ccc(F)cc4)nc4ccccc4c3=O)c2)cc1`, the MIC in the test with Staphylococcus aureus [1], with Escherichia coli and in the test with Staphylococcus aureus [2] was 62.5 µg/mL (≈ 124 µM) each time.

`COc1ccc(C(=O)Nc2cccc(-n3c(/C=C/c4ccc(Cl)cc4)nc4ccccc4c3=O)c2)cc1OC`: the MIC with Staphylococcus aureus [1], with Escherichia coli and in the test on Staphylococcus aureus [2] was 62.5 µg/mL (≈ 116 µM) throughout.

Turning to `CC(=O)NC[C@H]1CN(c2ccc(N3CCOCC3)c(F)c2)C(=O)O1` [LINEZOLID], the MIC in the test on Staphylococcus aureus [2] turned out to be 7.8 µg/mL (≈ 23.1 µM).

On to `COc1ccc(CC(=O)Nc2cccc(-n3c(/C=C/c4ccc(Cl)cc4)nc4ccccc4c3=O)c2)cc1`, for which the MIC in the test with Staphylococcus aureus [1] is 15.6 µg/mL (≈ 29.9 µM); with Escherichia coli, 62.5 µg/mL (≈ 120 µM); in the test on Staphylococcus aureus [2], 31.2 µg/mL (≈ 59.9 µM).

As to `COc1ccc(C(=O)Nc2cccc(-n3c(/C=C/c4ccc(F)cc4)nc4ccccc4c3=O)c2)cc1OC`, the MIC in the test with Staphylococcus aureus [1], in the test with Escherichia coli and with Staphylococcus aureus [2] was 62.5 µg/mL (≈ 120 µM) throughout.

Take `CN[C@@H]1[C@H](O[C@H]2[C@H](O[C@H]3[C@H](O)[C@@H](O)[C@H](N=C(N)N)[C@@H](O)[C@@H]3N=C(N)N)O[C@@H](C)[C@]2(O)C=O)O[C@@H](CO)[C@H](O)[C@H]1O` [STREPTOMYCIN]: the MIC in the test on Staphylococcus aureus [1] and in the test with Escherichia coli was 7.8 µg/mL (≈ 13.4 µM) throughout.
